Our source for the IC50 and inhibition values is patent US5624923A, “Tricyclic diazepine vasopressin antagonists and oxytocin antagonists” (priority 1995, dated 1997).

The target in assay [1] is T1, Rat Hepatic V1 Receptors (Rattus norvegicus, UniProt P30560).
T1 construct: Rat liver plasma membranes expressing the vasopressin V1 receptor subtypes; from tissue; host or cells: rat liver plasma membranes
The assay is described as follows: Binding Assay to Rat Hepatic V1 Receptors. The conditions noted are these: for IC50: rat liver membranes, read-out: V1 IC50; for inhibition at 10 µM: 2 h, rat.

The target of assay [2] is T2, Rat Kidney Medullary V2 Receptors (Rattus norvegicus, UniProt Q00788).
T2 construct: Medullary tissues from rat kidneys are dissected out; from tissue; host or cells: rat kidney medulla membranes
The assay is described as follows: Binding Assay to Rat Kidney Medullary V2 Receptors. The conditions noted are these: for IC50: rat kidney medulla membranes, read-out: V2 IC50; for inhibition at 10 µM: rat. The essentials: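 IC50 derived from competition curves; bound tritium counted by liquid scintillation after filtration. Rat medullary kidney membranes (Tris-HCl pH 7.4, BSA, PMSF) were incubated 120 min to equilibrium with radioligand and test compound (added in 50% DMSO). Nonspecific binding: 1.0 μM unlabeled ligand.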

The target of assay [3] is T3, V1 Receptor Subtype in Human Platelet (Homo sapiens, UniProt P37288).
T3 construct: tissue Hudson Valley Blood Services, Westchester Medical Center, Valhalla, N.Y; host or cells: human platelets (frozen platelet rich plasma)
The assay is described as follows: Binding to Vasopressin V1 receptor subtype in Human Platelet Membranes. The following applies: human platelet membranes.

T2 sequence (Q00788 whole entry): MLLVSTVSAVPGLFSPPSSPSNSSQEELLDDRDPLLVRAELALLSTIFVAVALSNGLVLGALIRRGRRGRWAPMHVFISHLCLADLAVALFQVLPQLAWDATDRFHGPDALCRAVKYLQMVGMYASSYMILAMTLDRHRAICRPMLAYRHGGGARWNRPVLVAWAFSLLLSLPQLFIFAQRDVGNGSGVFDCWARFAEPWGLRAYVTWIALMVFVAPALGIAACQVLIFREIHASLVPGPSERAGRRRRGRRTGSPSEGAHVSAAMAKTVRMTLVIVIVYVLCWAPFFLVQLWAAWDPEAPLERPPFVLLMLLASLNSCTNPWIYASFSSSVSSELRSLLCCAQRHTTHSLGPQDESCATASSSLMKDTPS
T1 sequence (P30560 whole entry): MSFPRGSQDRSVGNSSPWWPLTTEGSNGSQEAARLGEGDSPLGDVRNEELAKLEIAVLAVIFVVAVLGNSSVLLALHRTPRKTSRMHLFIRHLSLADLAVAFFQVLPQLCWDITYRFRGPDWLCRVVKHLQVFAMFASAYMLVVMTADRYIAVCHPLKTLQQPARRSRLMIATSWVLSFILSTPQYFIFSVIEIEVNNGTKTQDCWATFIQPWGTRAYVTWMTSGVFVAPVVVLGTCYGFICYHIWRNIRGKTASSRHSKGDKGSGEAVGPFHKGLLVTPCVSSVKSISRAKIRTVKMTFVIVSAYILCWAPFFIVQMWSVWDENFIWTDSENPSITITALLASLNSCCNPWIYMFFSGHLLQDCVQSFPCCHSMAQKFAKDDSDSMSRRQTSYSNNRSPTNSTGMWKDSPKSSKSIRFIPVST
T3 sequence (P37288 whole entry): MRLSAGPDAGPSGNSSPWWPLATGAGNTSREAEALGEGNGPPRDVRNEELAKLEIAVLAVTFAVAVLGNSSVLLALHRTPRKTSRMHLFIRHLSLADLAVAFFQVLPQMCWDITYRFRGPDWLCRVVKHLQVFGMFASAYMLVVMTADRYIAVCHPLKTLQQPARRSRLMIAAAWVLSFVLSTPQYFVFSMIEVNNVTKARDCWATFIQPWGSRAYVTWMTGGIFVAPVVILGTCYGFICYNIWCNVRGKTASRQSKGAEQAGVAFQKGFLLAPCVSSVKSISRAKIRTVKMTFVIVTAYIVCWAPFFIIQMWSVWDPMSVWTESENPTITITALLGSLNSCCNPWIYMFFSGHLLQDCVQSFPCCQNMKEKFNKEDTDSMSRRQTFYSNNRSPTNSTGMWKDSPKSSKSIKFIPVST

Turning to `O=C(Nc1ccc(C(=O)N2Cc3ccc(Cn4ccnc4)n3Cc3ccccc32)cc1)c1ccc(Cl)cc1Cl` [Example 582, 2,4-Dichloro-N-[4-[[3-(1H-imidazol-1-ylmethyl)-5H-pyrrolo[2,1-c][1,4]benzodiazepin-10(11H)-yl]carbonyl]phenyl]benzamide], the half-maximal inhibitory concentration (IC50) worked out at 130 nM in assay [1] and 14 nM in assay [2].

`O=C(Nc1ccc(C(=O)N2Cc3cccn3Cc3ccccc32)cc1)c1cc(Cl)cc(Cl)c1Cl` [Example 599, N-[4-(5H-Pyrrolo[2,1-c][1,4]benzodiazepin-10(11H)-ylcarbonyl)phenyl]-2,3,5-trichlorobenzamide]: the concentration for half-maximal inhibition (IC50) in assay [1] is 46 nM; in assay [2], 14 nM.

Turning to `O=C(Nc1ccc(C(=O)N2Cc3cccn3Cc3sccc32)cc1)c1ccc(Cl)cc1Cl` [Example 274, N-(4-(5H-pyrrolo[1,2-a]thieno-[3,2-e][1,4]diazepin-4(10H)-ylcarbonyl)phenyl]-2,4-dichloro-benzamide], in assay [3], the IC50 turned out to be 240 nM.

Consider `COC(=O)c1ccc2n1Cc1ccccc1N(C(=O)c1ccc(NC(=O)c3ccc(Cl)cc3Cl)cc1)C2` [Example 593], for which the values for the IC50 in assay [1] and in assay [2] were 210 nM and 42 nM, respectively.

For the compound `O=C(Nc1ccc(C(=O)N2Cc3cccn3Cc3ccccc32)cc1)C(O)c1ccccc1` (racemic) [Example 588, (±) α-Hydroxy-N-[4-(5H-pyrrolo[2,1c][1,4]benzodiazepin-10(11H)-ylcarbonyl)phenyl]benzeneacetamide], the half-maximal inhibitory concentration (IC50) was 40 nM in assay [1] and 12 nM in assay [2].

For the compound `O=C(Nc1ccc(C(=O)N2Cc3ccc(C(=O)C(F)(F)F)n3Cc3ccccc32)cc1)c1ccccc1C(F)(F)F` [Example 594], the inhibition at 10 µM in assay [1] turned out to be 78%; in assay [2] it was 23%.

In the case of `Cc1ccccc1C(=O)Nc1c(C)cc(C(=O)N2Cc3cccn3Cc3ccccc32)cc1C` [Example 472], the IC50 in assay [1] was 890 nM. The compound further yielded an inhibition at 10 µM in assay [2] of 22%.

As for `CN(C)CN(C(=O)c1ccc(Cl)cc1Cl)c1ccc(C(=O)N2Cc3cccn3Cc3ccccc32)cc1` [Example 490, N-[(Dimethylamino)methyl]-N-[4-(5H-pyrrolo[2,1-c][1,4]benzodiazepin-10(11H)-ylcarbonyl)phenyl]-2,4-dichlorobenzamide], the IC50 in assay [1] worked out at 14 nM; in assay [2], 5 nM.

For the compound `Cc1cccc(C(=O)Nc2ccc(C(=O)N3Cc4cccn4Cc4ccccc43)c(Cl)c2)c1C` [Example 525, N-[4-(5H-pyrrolo[2,1-c][1,4]benzodiazepin-10(11H)-ylcarbonyl]-3-chlorophenyl]-2,3-dimethylbenzamide], in assay [3], the 50% inhibitory concentration (IC50) was 430 nM.

As to `Cc1c(F)cccc1C(=O)Nc1ccc(C(=O)N2Cc3cccn3Cc3ccccc32)c(Cl)c1` [Example 481, N-[4-(5H-pyrrolo[2,1-c][1,4]benzodiazepin-10(11H)-ylcarbonyl)-3-chlorophenyl]-3-fluoro-2-methylbenzamide], the IC50 in assay [1] was 1000 nM; in assay [2], 3.4 nM.

In the case of `NC(=O)CNC(C(=O)Nc1ccc(C(=O)N2Cc3cccn3Cc3ccccc32)cc1)c1ccccc1` (centres unmarked) [Example 585], the values for the concentration for half-maximal inhibition (IC50) in assay [1] and in assay [2] were 280 nM and 83 nM, respectively.

Turning to `O=C(Nc1ccc(C(=O)N2Cc3cccn3Cc3ccccc32)cc1)c1cc(Cl)ccc1Cl` [Example 4, N-[4-(5H-pyrrolo[2,1-c][1,4]benzodiazepin-10(11H)-ylcarbonyl)phenyl]-2,5-dichlorobenzamide], the IC50 in assay [1] was 120 nM; in assay [2], 14 nM.

As to `Cc1ccccc1CC(=O)Nc1ccc(C(=O)N2Cc3cccn3Cc3ccccc32)cc1` [Example 93, N-[4(5H-Pyrrolo[2,1-c][1,4]benzodiazepin-10(11H)-ylcarbonyl)phenyl]-2-methylbenzeneacetamide], the IC50 in assay [1] was determined as 0.9 nM; in assay [2], 0.7 nM.

Turning to `O=C(Nc1ccc(C(=O)N2Cc3ccc(CO)n3Cc3ccccc32)cc1)c1ccc(Cl)cc1Cl` [Example 581, 2,4-Dichloro-N-[4-[[3-(hydroxymethyl)-5H-pyrrolo[2,1-c][1,4]benzodiazepin-10(11H)-yl]carbonyl]phenyl]benzamide], the results for the IC50 in assay [1] and in assay [2] were 21 nM and 5.3 nM, respectively.

For the compound `O=C(Nc1ccc(C(=O)N2Cc3cccn3Cc3ccccc32)cc1)c1ccccc1Cl` [Example 7], the IC50 came to 10 nM in assay [1] and 5 nM in assay [2].

With `O=C(Nc1ccc(C(=O)N2Cc3cccn3Cc3ccccc32)cc1)c1c(Cl)cccc1Cl` [Example 469, N-[4-(5H-pyrrolo[2,1-c][1,4]benzodiazepin-10(11H)-ylcarbonyl)phenyl]-2,6-dichlorobenzamide], the IC50 in assay [1] is 94 nM; in assay [2], 15 nM.

Consider `CSc1ccccc1C(=O)Nc1ccc(C(=O)N2Cc3cccn3Cc3ccccc32)cc1` [Example 85, N-[4-(5H-Pyrrolo[2,1-c][1,4]benzodiazepin-10(11H)-ylcarbonyl)phenyl]-2-(methylthio)benzamide], for which the IC50 in assay [1] came to 9 nM; in assay [2], 13 nM.

For the compound `CC(=O)OC(C(=O)Nc1ccc(C(=O)N2Cc3cccn3Cc3ccccc32)cc1)c1ccccc1` (stereo not drawn) [Example 587, α-(Acetyloxy)-N-[4-(5H-pyrrolo[2,1-c][1,4]benzodiazepin-10(11H)-ylcarbonyl)phenyl]benzeneacetamide], the 50% inhibitory concentration (IC50) was 67 nM in assay [1] and 22 nM in assay [2].

Consider `O=C(Nc1ccc(C(=O)N2Cc3cccn3Cc3ccccc32)cc1)c1ccc(Cl)cc1Cl` [Example 6, N-[4-(5H-pyrrolo[2,1-c][1,4]benzodiazepin-10(11H)-ylcarbonyl)phenyl]-2,4-dichlorobenzamide], for which the figures for the IC50 in assay [1] and in assay [2] were 23 nM and 3 nM, respectively.

With `COC(=O)c1ccc(C(=O)Nc2ccc(C(=O)N3Cc4cccn4Cc4ccccc43)cc2)cc1` [Example 489], the inhibition at 10 µM stood at 61% in assay [1] and 82% in assay [2].

For `Cc1ccc(F)cc1C(=O)Nc1ccc(C(=O)N2Cc3cccn3Cc3ccccc32)c(Cl)c1` [Example 482, N-[4-(5H-pyrrolo[2,1-c][1,4]benzodiazepin-10(11H)-ylcarbony)-3-chlorophenyl]-5-fluoro-2-methylbenzamide], the half-maximal inhibitory concentration (IC50) worked out at 410 nM in assay [1] and 2.3 nM in assay [2].

With `Cc1ccccc1C(=O)Nc1ccc(C(=O)N2Cc3cccn3Cc3ccccc32)c(Cl)c1` [Example 470], the values for the IC50 in assay [1] and in assay [2] were 54 nM and 4.5 nM, respectively.

Turning to `O=C(Nc1ccc(C(=O)N2Cc3cccn3Cc3ccccc32)cc1)c1cccc(C(F)(F)F)c1` [Example 474, N-[4-(5H-pyrrolo[2,1-c][1,4]benzodiazepin-10(11H)-ylcarbonyl)phenyl]-3-(trifluoromethyl)benzamide], the IC50 in assay [1] was 87 nM; in assay [2], 38 nM.

`O=C(Nc1ccc(C(=O)N2Cc3cccn3Cc3ccccc32)cc1)c1sccc1Cl` [Example 476, N-[4-(5H-pyrrolo[2,1-c][1,4]benzodiazepin-10(11H)-ylcarbonyl)phenyl]-3-chlorothiophene-2-carboxamide]: the values for the half-maximal inhibitory concentration (IC50) in assay [1] and in assay [2] were 84 nM and 69 nM, respectively.

Regarding `O=C(Nc1ccc(C(=O)N2Cc3cccn3Cc3ccccc32)c(Cl)c1)c1ccc(Cl)cc1Cl` [Example 471], the results for the IC50 in assay [1] and in assay [2] were 45 nM and 8.3 nM, respectively.

Consider `Cc1c(F)cccc1C(=O)Nc1ccc(C(=O)N2Cc3ccnn3Cc3ccccc32)cc1` [Example 517, N-[4-(4H-Pyrazolo[5,1-c][1,4]benzodiazepin-5(10H)-ylcarbonyl)phenyl]-3-fluoro-2-methylbenzamide], for which the results for the IC50 in assay [1] and in assay [2] were 210 nM and 15 nM, respectively.

For the compound `Cc1ccccc1C(=O)Nc1ccc(C(=O)N2Cc3cccn3Cc3ccccc32)cc1` [Example 3, 2-Methyl-N-[4-(5H-pyrrolo[2,1-c][1,4]-benzodiazepin-10(11H)-ylcarbonyl)phenyl]benzamide], the 50% inhibitory concentration (IC50) turned out to be 38 nM in assay [1] and 4 nM in assay [2].

Turning to `Cc1ccccc1C(=O)Nc1ccc(C(=O)N2Cc3ccc(C(=O)C(F)(F)F)n3Cc3ccccc32)c(Cl)c1` [Example 595, N-[4-[[3-(Trifluoroacetyl)-5H-pyrrolo[2,1-c][1,4]benzodiazepin-10(11H)-yl]carbonyl]-3-chlorophenyl]-2-methylbenzamide], the inhibition at 10 µM worked out at 57% in assay [1] and 93% in assay [2].

As for `O=C(Nc1ccc(C(=O)N2Cc3cccn3-c3ccccc32)cc1)c1ccc(Cl)cc1Cl` [Example 17, N-[4-(pyrrolo(1,2-a]quinoxalin-5(4H)-ylcarbonyl)phenyl]-2,4-dichloro-benzamide], the IC50 in assay [1] turned out to be 1200 nM; in assay [2], 110 nM.

Regarding `O=C(CN1CCOCC1)Nc1ccc(C(=O)N2Cc3cccn3Cc3ccccc32)cc1` [Example 590, N-[4-(5H-pyrrolo[2,1-c][1,4]benzodiazepin-10(11H)-ylcarbonyl)phenyl]-4-morpholineacetamide], the inhibition at 10 µM worked out at 89% in assay [1] and 81% in assay [2].

In the case of `Cc1cccc(NC(=O)c2ccc(C(=O)N3Cc4cccn4Cc4ccccc43)cc2)c1C` [Example 485, N-(2,3-Dimethylphenyl)-4-(5H-pyrrolo[2,1-c][1,4]benzodiazepin-10(11H)-ylcarbonyl)benzamide], the values for the 50% inhibitory concentration (IC50) in assay [1] and in assay [2] were 240 nM and 13 nM, respectively.

As for `Cc1ccccc1C(=O)Nc1ccc(C(=O)N2Cc3ccnn3Cc3ccccc32)cc1` [Example 210, N-[4-(4H-Pyrazolo[5,1-c][1,4]benzodiazepin-5(10H)-ylcarbonyl)phenyl]-2-methylbenzamide], the values for the half-inhibitory concentration (IC50) in assay [1] and in assay [2] were 58 nM and 16 nM, respectively.

Broadly, the IC50 is the point on the concentration scale where inhibition reaches its midpoint. The term inhibition denotes the change of the read-out against control, counted positive when it falls. A high value points to strong suppression.
